Measurements published in patent US5086053A, “Derivatives of 1,3,4-thiadiazole, a method of obtaining them and pharmaceutical compositions containing them” (Sanofi, priority 1988, dated 1992).
Structures can show the parent of a compound that is named as a salt. Where two headings read alike, the source gives them in different places.

Key:
[1] = tested on: M1 central muscarinic cholinergic receptors; experiment: Antagonism to rotatory behaviour induced by intrastriatal injection of pirenzepine in the mouse; type: in vivo, mouse (female, Swiss, CD 1); conditions: for change in vivo at 3 mg/kg: Mus musculus, po, read-out: % inhibition of pirenzepine-induced rotations
Protocol: Intrastriatal injection of PZ into the mouse induces rotatory behaviour. Antagonism to this behaviour by the products according to the invention was studied.
The products according to the invention were administered in doses of 0.3 or 3 mg/kg orally after being solubilized in distilled water or suspended in a 5% solution of gum arabic. The controls were given pure solvent under the same conditions.
The animals used were female mice (Swiss, CD 1, Charles River, France), body weight between 25 and 30 grams.
Pirenzepine was dissolved in a phosphate buffer, the pH of the solution being 6.
The products under study or solvents thereof were orally administered, using a probang, in a volume of 0.4 ml per 20 g body weight.
The number of contralateral rotations (in the opposite direction to the side of the injection) was counted for three 2-minute periods after injection of pirenzepine (minutes 2-4, 8-10 and 13-15) and was then totalled for each animal. Each treatment comprised three to four doses and ten animals per dose. For each treatment, the total number of rotations and the percentage inhibition relative to the control batch (solvent) was calculated.

[2] = molecular target: T1, type M1 muscarinic cholinergic receptor (Rattus norvegicus, UniProt P08482); experiment: biochemical; type: binding; conditions: for ratio R between the IC50 for receptors M1 and M2 (selectivity): values correspond to IC50 3H-NMS (M2) / IC50 3H-PZ (M1)
T1 sequence (P08482 1-460): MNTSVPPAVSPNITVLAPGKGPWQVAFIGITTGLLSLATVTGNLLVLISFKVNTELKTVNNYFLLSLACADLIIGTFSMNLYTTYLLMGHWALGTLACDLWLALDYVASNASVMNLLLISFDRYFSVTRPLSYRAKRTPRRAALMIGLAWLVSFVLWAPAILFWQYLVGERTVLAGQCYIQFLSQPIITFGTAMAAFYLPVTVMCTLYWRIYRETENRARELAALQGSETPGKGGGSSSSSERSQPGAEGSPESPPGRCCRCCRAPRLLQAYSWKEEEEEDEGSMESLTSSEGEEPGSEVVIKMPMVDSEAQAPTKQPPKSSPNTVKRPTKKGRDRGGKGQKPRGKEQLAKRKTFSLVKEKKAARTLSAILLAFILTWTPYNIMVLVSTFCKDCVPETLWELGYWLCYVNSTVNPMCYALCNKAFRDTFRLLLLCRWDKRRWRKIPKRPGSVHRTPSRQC
Protocol: a) Search for an affinity for the type M1 muscarinic cholinergic receptor
The interaction of molecules with type M1 muscarinic receptors was studied in vitro on homogenized rat hippocampus, by studying the displacement of tritiated pirenzepine form its specific tagging sites. 10 μl portions of homogenized rat hippocampus (5% w/v) in an Na2 HPO4 buffer (50 mM, pH 7.40) were incubated at 4° C. for 2 hours in the presence of ^3 H--Pz (76 Ci/mmol/l nM final), with increasing concentrations of the product under study. The final volume was 2 ml. The reaction was stopped by centrifuging for 10 minutes at 50 000 g. After decantation and washing of the bottoms, the tagged radioactivity was counted by liquid scintillation. Non-specific tagging was determined in the presence of 10 μM of atropine sulphate. The 50 inhibiting concentration (IC50) was determined graphically.

[3] = molecular target: T2, type M2 muscarinic cholinergic receptor (Cavia porcellus, UniProt H0VRN8); experiment: Affinity for type M2 muscarinic cholinergic receptor: displacement of tritiated N-methylscopolamine (3H-NMS) on homogenized smooth muscle of guinea-pig ileum; type: binding; conditions: displacement of 3H-NMS, 30° C., 20 minutes
T2 construct: studies in vitro on homogenized smooth muscle of guinea-pig ileum; from tissue; host or cells: guinea-pig ileum smooth muscle homogenate
T2 sequence (H0VRN8 1-466): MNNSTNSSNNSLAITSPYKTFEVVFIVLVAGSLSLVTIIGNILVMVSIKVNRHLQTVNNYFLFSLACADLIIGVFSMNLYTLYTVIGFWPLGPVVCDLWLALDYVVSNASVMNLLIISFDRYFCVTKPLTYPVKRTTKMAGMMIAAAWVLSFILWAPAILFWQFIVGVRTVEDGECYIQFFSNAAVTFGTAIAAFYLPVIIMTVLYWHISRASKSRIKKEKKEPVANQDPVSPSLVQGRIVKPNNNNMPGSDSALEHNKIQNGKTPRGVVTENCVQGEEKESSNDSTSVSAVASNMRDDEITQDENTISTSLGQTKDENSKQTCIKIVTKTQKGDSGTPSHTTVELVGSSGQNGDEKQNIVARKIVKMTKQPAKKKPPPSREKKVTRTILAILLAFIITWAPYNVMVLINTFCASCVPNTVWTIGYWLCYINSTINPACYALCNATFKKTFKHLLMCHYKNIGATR
Text: BIOCHEMICAL STUDY IN VITRO
M1 type receptors are concentrated in certain zones of the brain such as the hippocampus, the cerebral cortex, the corpus striatum and the sympathetic ganglia. These connection sites can be selectively tagged with tritiated pirenzepine (^3 H--PZ). Type M2 receptors predominate in the heart and the ileum and can be tagged with tritiated N-methylscopolamine (^3 H--NMS). In order to determine the selectivity of the products according to the invention, with regard to sites M1 and M2, a study was made of their interaction in vitro, with high-affinity tagging with ^3 H--PZ and ^3 H--NMS, on rat hippocampus membranes and smooth muscle from guinea-pig ileum respectively.
b) Search for an affinity for the type M2 muscarinic cholinergic receptor
Interaction with type M2 muscarinic receptors was studies in vitro on homogenized smooth muscle of guinea-pig ileum by measuring the displacement of tritiated N-methyl-scopolamine from its specific tagging sites. 50 μl portions of homogenized smooth muscle form guinea-pig ileum (0.625% w/v) in 20 mM of HEPES buffer: 2-((2-hydroxy 4-ethyl) piperazin-1-yl) ethanesulphonic acid containing NaCl (100 mM) and Mg Cl2 (10 mM) (final pH=7.5) were incubated at 30° C. for 20 minutes int eh presence of ^3 H--NMS (85 Ci/mmol/0.3 nM final) with increasing concentrations of the products under test. The final volume was 1 ml. The reaction was stopped by centrifuging for 5 minutes at 15000 g. Non-specific tagging was determined in the presence of […] of atropine sulphate.
The results are expressed as 50% inhibiting concentrations (IC50), i.e. the concentration (in μM) which induces a 50% displacement of the tritiated ligand fixed to the membrane receptors. The IC50 displacement of ^3 H--PZ represents affinity for the M1 receptor, and
The IC50 displacement of ^3 H--NMS represents affinity for the M2 receptor.

[4] = Acute oral toxicity in mice; set-up: species or system Swiss, CD 1); conditions: mouse, in vivo, female mice, 24 hours after administration, read-out: 50% lethal dose (DL50)
Protocol: The acute toxicity was determined for one product according to the invention: SR 45341 A. The product was orally administered in increasing doses to a batch of 10 female mice (Swiss, CD 1, Charles River, France), body weight 20 g.
The death rate caused by the product under study was noted during the 24 hours after administration of the product. The 50% lethal dose (DL50) was determined, i.e. the dose which killed 50% of the animals.

[5] = 3 mg/kg p.o., 4 hours before pirenzepine 1 μg intrastriatal, *p<0.05, **p<0.01 Student's test
[6] = displacement of 3H-PZ, rat hippocampus homogenate, 4° C., 2 hours, read-out: IC50 3H-PZ (M1)

CN(C)CCCNc1nnc(-c2ccc(F)cc2)s1 [SR 45421 A]
change in vivo at 3 mg/kg [1, 5]: -38%

Cc1cc(C)c(-c2nnc(NCCCN(C)C)s2)c(C)c1.Cl.Cl [SR 45341 A, 2-(3-dimethylaminopropylamino)-5-(2,4,6-trimethylphenyl)-1,3,4 thiadiazole dihydrochloride]
change in vivo at 3 mg/kg [1, 5]: -74%
IC50 [2, 6]: 0.45 µM
ratio R between the IC50 for receptors M1 and M2 (selectivity) [2]: 160
IC50 [3]: 72 µM
LD50 at 24 h [4]: > 300 mg/kg

CN(C)CCCNc1nnc(-c2ccc(Cl)cc2)s1 [SR 45480 A]
change in vivo at 3 mg/kg [1, 5]: -54%
IC50 [2, 6]: 4.5 µM
ratio R between the IC50 for receptors M1 and M2 (selectivity) [2]: 11
IC50 [3]: 50 µM

CNCCCNc1nnc(-c2c(C)cc(C)cc2C)s1.Cl.Cl [SR 45418 A, 2-(3-methylaminopropylamino) 5-(2,4,6-trimethylphenyl) 1,3,4-thiadiazole dihydrochloride]
change in vivo at 3 mg/kg [1, 5]: -77%
IC50 [2, 6]: 20 µM
ratio R between the IC50 for receptors M1 and M2 (selectivity) [2]: > 5
IC50 [3]: > 100 µM

Clc1ccc(-c2nnc(NCCCN3CCCC3)s2)c(Cl)c1 [SR 45458 A]
change in vivo at 3 mg/kg [1, 5]: -28%
IC50 [2, 6]: 0.8 µM
ratio R between the IC50 for receptors M1 and M2 (selectivity) [2]: 15
IC50 [3]: 12 µM

Fc1ccc(-c2nnc(NCc3ccncc3)s2)cc1 [SR 45482 A]
change in vivo at 3 mg/kg [1, 5]: -53%

CN(C)CCCNc1nnc(-c2ccccc2)s1 [SR 44824 A]
change in vivo at 3 mg/kg [1, 5]: -27%
IC50 [2, 6]: 3 µM
ratio R between the IC50 for receptors M1 and M2 (selectivity) [2]: > 30
IC50 [3]: > 100 µM

CN1CCC(N(C)c2nnc(-c3ccccc3)s2)CC1 [SR 44828 A, Dihydrochloride and hydrate of 2-[N-methyl N-(1-methyl 4-piperidyl)amino-5-phenyl-1,3,4-thiadiazole]
change in vivo at 3 mg/kg ([1]; 4 h): -26%
IC50 [2]: 9 µM

CCN(CC)CCCNc1nnc(-c2c(C)cc(C)cc2C)s1 [SR 45352 A]
change in vivo at 3 mg/kg [1, 5]: -32%
IC50 [2, 6]: 5.5 µM
ratio R between the IC50 for receptors M1 and M2 (selectivity) [2]: 5
IC50 [3]: 30 µM

Clc1ccc(-c2nnc(NCCCn3ccnc3)s2)c(Cl)c1 [SR - A]
change in vivo at 3 mg/kg [1, 5]: -60%

FC(F)(F)c1cccc(-c2nnc(NCCN3CCOCC3)s2)c1 [B, reference compound]
% inhibition of pirenzepine-induced rotations ([1]; 0,3 mg/kg p.o., 4 hours before pirenzepine 1 μg intrastriatal, *p<0.05, **p<0.01 Student's test): Inactive
% inhibition of pirenzepine-induced rotations [1, 5]: Inactive

Clc1ccc(-c2nnc(NCCCN3CCOCC3)s2)cc1 [SR 45520 A]
change in vivo at 3 mg/kg [1, 5]: -75%
IC50 [2, 6]: 4.5 µM
ratio R between the IC50 for receptors M1 and M2 (selectivity) [2]: 17
IC50 [3]: 80 µM

Clc1ccc(-c2nnc(NCCc3ccccn3)s2)c(Cl)c1 [SR 45492 A]
change in vivo at 3 mg/kg [1, 5]: -50%

CN1CCCC(CNc2nnc(-c3ccc(Cl)cc3)s2)C1 (centres unmarked) [SR 45491 A, 2-[(N-methyl 3-piperidyl)methylamino]-5-(4-chlorophenyl)-1,3,4-thiadiazoledihydrochloride]
change in vivo at 3 mg/kg [1, 5]: -57%

Clc1ccc(-c2nnc(NCCCn3ccnc3)s2)c(Cl)c1 [SR 45504 A]
IC50 [2, 6]: 3 µM
ratio R between the IC50 for receptors M1 and M2 (selectivity) [2]: 13
IC50 [3]: 40 µM

CN(Cc1cccnc1)c1nnc(-c2ccc(F)cc2)s1 [SR 45530 A]
change in vivo at 3 mg/kg [1, 5]: -41%

Fc1ccc(-c2nnc(NCc3cccnc3)s2)cc1 [SR 45447 A]
change in vivo at 3 mg/kg [1, 5]: -62%

CCN(CCCN(C)C)c1nnc(-c2ccc(F)cc2)s1 [SR 45483 A]
change in vivo at 3 mg/kg [1, 5]: -20%
IC50 [2, 6]: 2.4 µM
ratio R between the IC50 for receptors M1 and M2 (selectivity) [2]: 8
IC50 [3]: 20 µM

CN1CCCC1CCNc1nnc(-c2ccc(Cl)cc2Cl)s1 (centres unmarked) [SR 45490 A]
change in vivo at 3 mg/kg [1, 5]: -73%

Clc1ccc(-c2nnc(NCc3cccnc3)s2)cc1 [SR 45488 A]
change in vivo at 3 mg/kg [1, 5]: -49%

Cc1cc(C)c(-c2nnc(NCc3cccnc3)s2)c(C)c1 [SR 45417 A]
change in vivo at 3 mg/kg [1, 5]: -43%

CCN(CC)CCCCNc1nnc(-c2ccccc2)s1 [SR 45339 A, Dihydrochloride of 2-(4-diethylaminobutylamino)-5-phenyl-1,3,4-thiadiazole]
change in vivo at 3 mg/kg [1, 5]: -77%
IC50 [2, 6]: 5 µM
ratio R between the IC50 for receptors M1 and M2 (selectivity) [2]: 7
IC50 [3]: 34 µM

Clc1ccc(-c2nnc(NCc3cccnc3)s2)c(Cl)c1 [SR 45459 A]
change in vivo at 3 mg/kg [1, 5]: -29%

c1ccc(-c2nnc(NCCN3CCOCC3)s2)cc1 [A, reference compound]
change in vivo at 3 mg/kg [1, 5]: -8%

CN(C)CCCNc1nnc(-c2ccc(Cl)cc2Cl)s1 [SR 45422 A]
change in vivo at 3 mg/kg [1, 5]: -50%
IC50 [2, 6]: 0.7 µM
ratio R between the IC50 for receptors M1 and M2 (selectivity) [2]: 37
IC50 [3]: 26 µM

CN(C)CCNc1nnc(-c2ccccc2)s1 [C, reference compound]
change in vivo at 3 mg/kg [1, 5]: -12%

CNC1CCN(c2nnc(-c3ccccc3)s2)CC1 [SR 44825 A, 2-(4-methylaminopiperidino)-5-phenyl-1,3,4-thiadiazole dihydrochloride]
IC50 [3]: 80 µM

CCN(CC)CCCNc1nnc(-c2ccc(Cl)cc2Cl)s1 [SR 45481 A]
change in vivo at 3 mg/kg [1, 5]: -67%

Cc1cc(C)c(-c2nnc(NCCCN(C)C)s2)c(C)c1Br [SR 45340 A]
change in vivo at 3 mg/kg [1, 5]: -95%
IC50 [2, 6]: 3.5 µM
ratio R between the IC50 for receptors M1 and M2 (selectivity) [2]: 6
IC50 [3]: 27 µM

CN1CCN(CCCNc2nnc(-c3ccc(Cl)cc3)s2)CC1 [SR 45489 A]
change in vivo at 3 mg/kg [1, 5]: -29%
IC50 [2, 6]: 3.6 µM
ratio R between the IC50 for receptors M1 and M2 (selectivity) [2]: 7
IC50 [3]: 26 µM

CNCCCNc1nnc(-c2ccc(Cl)cc2Cl)s1 [SR 45479 A]
IC50 [2, 6]: 14 µM
ratio R between the IC50 for receptors M1 and M2 (selectivity) [2]: 5
IC50 [3]: 70 µM
